Source: patent publication US20060287252A1, “Substances k01-0509 and process for producing the same” (priority 2004, published 2006)

Columns and labels:
Format in all cases: cell-based
[1] = tested on: enteropathogenic E. coli E2348/69 (wild strain)
[2] = tested on: Micrococcus luteus ATCC 9341; experiment: Antibiotic activity by paper disc method; conditions: 10 μg/disc, paper disc 6 mm, nutrient agar, 24 hours cultivation
E. coli NIHJ = experiment: Antibiotic activity by paper disc method; conditions: 10 μg/disc, paper disc 6 mm, nutrient agar, 24 hours cultivation
[3] = tested on: Bacillus subtilis ATCC 6633; experiment: Antibiotic activity by paper disc method; conditions: 10 μg/disc, paper disc 6 mm, nutrient agar, 24 hours cultivation
[4] = tested on: Xanthomonas campestris pv. oryzae KB88

Measured: inhibition zone

CC(NC(=O)C1NC(C)C(=O)NC1CCC(O)C(O)CC1CNC(=N)N1C(N)=O)C(=O)NC(C(=O)O)C(C)C (stereo not shown) [K01-0509-A1 substance]
no inhibition zone: all assays above

CC(NC(=O)C1NC(C)C(=O)NC1CCC(O)C(O)CC1CNC(=N)N1C(N)=O)C(=O)NC(C(=O)O)C(C)C (stereo not shown) [K01-0509-A2 substance]
no inhibition zone: [1] | [4]
